Legend:
Assay type in all cases: binding
TEAD1 = TEAD1 (Homo sapiens (Human), UniProt P28347); assay: TEAD lipid pocket TR-FRET (Lipid HTRF) probe competition assay; details: 30 mins incubation with compound; read-out: Lipid HTRF TEAD1 IC50
Protocol: (§1) His-tagged TEAD proteins are pre-incubated with TEAD project compounds for 30 minutes or 4 hours at room temperature. Biotinylated lipid pocket probes are then added to the TEAD/Compound mixture and incubated for 60 minutes at room temperature. The lipid pocket probe competes with the test compound for the TEAD lipid pocket until equilibrium is reached. After 60 minutes, Europium labelled anti-His (Perkin Elmer #ADO 110) and XL665 labelled streptavidin (CIS Bio 610SAXAC) are added to the TEAD/test compound/lipid pocket mixture and incubated for 30 minutes or 4 hours. […] If a TEAD lipid pocket binder such as binds and displaces the lipid pocket probe, the disruption of the TEAD:probe interaction results in a decrease in TR-FRET signal. The potency of compounds as TEAD lipid pocket binders is determined by IC50 value generated using a non-linear 4 parameter curve fit.
(§2) Note that the “Compound Number” in Table 2 and Table 3 corresponds to the “Compound Number” in Table 1.

TEAD2 = TEAD2 (Homo sapiens (Human), UniProt Q15562); assay: as above; details: 30 mins incubation with compound; read-out: Lipid HTRF TEAD2 IC50
Chain of TEAD2 (Q15562 whole entry): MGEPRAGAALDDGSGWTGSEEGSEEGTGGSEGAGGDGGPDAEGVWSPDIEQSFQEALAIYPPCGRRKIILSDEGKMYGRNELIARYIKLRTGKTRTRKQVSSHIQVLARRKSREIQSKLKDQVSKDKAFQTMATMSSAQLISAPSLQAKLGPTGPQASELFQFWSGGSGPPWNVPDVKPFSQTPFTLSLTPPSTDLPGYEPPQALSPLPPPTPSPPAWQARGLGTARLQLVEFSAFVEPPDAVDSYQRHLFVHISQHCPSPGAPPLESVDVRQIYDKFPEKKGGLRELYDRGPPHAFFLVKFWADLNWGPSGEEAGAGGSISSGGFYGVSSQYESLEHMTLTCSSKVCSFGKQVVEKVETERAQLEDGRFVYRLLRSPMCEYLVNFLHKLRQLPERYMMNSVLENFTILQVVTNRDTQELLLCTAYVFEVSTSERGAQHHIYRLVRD
Protocol: as §1, §2

TEAD3 = TEAD3 (Homo sapiens (Human), UniProt Q99594); assay: as above; details: 30 mins incubation with compound
Chain of TEAD3 (Q99594 whole entry, species assumed): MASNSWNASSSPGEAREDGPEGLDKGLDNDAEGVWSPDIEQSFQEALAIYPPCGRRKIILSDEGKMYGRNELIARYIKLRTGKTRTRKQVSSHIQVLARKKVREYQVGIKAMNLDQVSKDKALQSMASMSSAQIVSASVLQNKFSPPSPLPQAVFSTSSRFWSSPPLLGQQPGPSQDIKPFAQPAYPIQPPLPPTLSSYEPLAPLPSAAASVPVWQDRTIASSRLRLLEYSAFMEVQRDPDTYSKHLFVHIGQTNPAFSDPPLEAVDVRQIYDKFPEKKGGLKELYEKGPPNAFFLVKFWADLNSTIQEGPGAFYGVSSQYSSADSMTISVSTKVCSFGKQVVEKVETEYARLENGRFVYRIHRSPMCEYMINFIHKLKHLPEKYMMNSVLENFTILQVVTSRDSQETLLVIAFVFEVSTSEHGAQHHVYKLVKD
Protocol: as §1, §2

TEAD4 = TEAD4 (Homo sapiens (Human), UniProt Q15561); assay: as above; details: 30 mins incubation with compound; read-out: Lipid HTRF TEAD4 IC50
Chain of TEAD4 (Q15561 whole entry, species assumed): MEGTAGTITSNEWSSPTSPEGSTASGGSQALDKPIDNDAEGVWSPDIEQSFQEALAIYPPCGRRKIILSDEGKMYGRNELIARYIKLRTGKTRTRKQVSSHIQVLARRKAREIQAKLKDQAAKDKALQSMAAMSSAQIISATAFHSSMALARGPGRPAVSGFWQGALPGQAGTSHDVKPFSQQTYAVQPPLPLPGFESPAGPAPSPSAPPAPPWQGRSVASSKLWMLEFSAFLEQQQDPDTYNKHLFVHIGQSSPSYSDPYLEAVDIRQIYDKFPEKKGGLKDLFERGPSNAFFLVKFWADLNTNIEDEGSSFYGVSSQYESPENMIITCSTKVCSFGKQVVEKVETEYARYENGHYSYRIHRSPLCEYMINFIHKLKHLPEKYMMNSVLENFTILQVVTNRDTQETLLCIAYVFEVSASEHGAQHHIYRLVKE
Protocol: as §1, §2

TEAD1 YAP50-100 = TEAD1 YAP50-100 (Homo sapiens (Human), UniProt P28347); assay: TEAD-YAP protein-protein interaction HTRF assay; details: TEAD1 YAP50-100 HTRF combined EC50, 30 mins incubation with compound
Chain of TEAD1 YAP50-100 (P28347 209-426): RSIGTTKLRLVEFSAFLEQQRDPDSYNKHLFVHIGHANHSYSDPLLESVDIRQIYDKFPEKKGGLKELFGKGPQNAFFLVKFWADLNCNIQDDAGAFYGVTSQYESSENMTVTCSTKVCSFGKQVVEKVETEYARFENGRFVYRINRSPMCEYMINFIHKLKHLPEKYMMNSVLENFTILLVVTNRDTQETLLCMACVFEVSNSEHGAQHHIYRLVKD
Protocol: (§3) Purified His-tagged TEAD protein (YAP Binding Domain, amino acids 217-447) is pre-incubated with Europium labelled anti-His antibody tracer (Perkin Elmer Cat #AD0110). Small molecule Inhibitors are then incubated with the TEAD-Eu protein complex for 30 minutes or 4 hours to allow for binding to TEAD protein. Biotinylated YAP peptide for TEAD-YAP assays (AA's 50-100) or biotinylated TAZ peptide for TEAD-TAZ assays (AA's 13-57) that has been pre-incubated with streptavidin −xl665 acceptor (CIS-Bio Cat #610SAXAC) or is added to the compound-TEAD mix. The TEAD-YAP-inhibitor mixture is then incubated for 60 minutes at room temperature. All reactions are carried out in a polystyrene plate. After 60 minutes, the plate is read on a plate reader using TR-FRET mode with wavelengths of 665 nm/615 nm. If YAP or TAZ binds to TEAD as expected, a TR-FRET signal results from the proximity of YAP or TAZ and TEAD after binding. If an inhibitor such as peptide 17 (Selleckchem Cat #S8164) interferes with YAP-TEAD or TAZ-TEAD binding, the disruption of the YAP or TAZ:TEAD interaction results in a decrease in TR-FRET signal. The potency of compounds as YAP:TEAD or TAZ:TEAD protein-protein interaction (PPi) inhibitors is determined by an IC50 or EC50 value generated using a non-linear four parameter curve fit. The extent to which representative examples of the disclosed compounds are able to inhibit interaction between TEAD1, TEAD2, TEAD3 or TEAD4 and YAP truncated from amino acids 50-100 or TAZ truncated from amino acids 13-57 as measured by Homogeneous Time Resolved Fluorescence (HTRF) to generate EC50 and IC50 data.
(§4) Note that the “Compound Number” in Table 4 corresponds to the “Compound Number” in Table 1. […]

TEAD2 YAP50-100 = TEAD2 YAP50-100 (Homo sapiens (Human), UniProt Q15562); assay: TEAD-YAP protein-protein interaction HTRF assay; details: TEAD2 YAP50-100 HTRF combined EC50, 30 mins incubation with compound
Chain of TEAD2 YAP50-100 (Q15562 217-447): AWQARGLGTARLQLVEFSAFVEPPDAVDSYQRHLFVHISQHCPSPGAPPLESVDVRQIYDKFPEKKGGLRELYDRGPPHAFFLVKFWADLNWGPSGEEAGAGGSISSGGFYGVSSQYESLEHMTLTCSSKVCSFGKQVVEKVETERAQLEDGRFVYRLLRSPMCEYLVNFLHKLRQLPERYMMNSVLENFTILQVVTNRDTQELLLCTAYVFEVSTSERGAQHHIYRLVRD
Protocol: as §3, §4

TEAD3 YAP50-100 = TEAD3 YAP50-100 (Homo sapiens (Human), UniProt Q99594); assay: TEAD-YAP protein-protein interaction HTRF assay; details: TEAD3 YAP50-100 HTRF combined EC50, 30 mins incubation with compound
Chain of TEAD3 YAP50-100 (Q99594 218-435): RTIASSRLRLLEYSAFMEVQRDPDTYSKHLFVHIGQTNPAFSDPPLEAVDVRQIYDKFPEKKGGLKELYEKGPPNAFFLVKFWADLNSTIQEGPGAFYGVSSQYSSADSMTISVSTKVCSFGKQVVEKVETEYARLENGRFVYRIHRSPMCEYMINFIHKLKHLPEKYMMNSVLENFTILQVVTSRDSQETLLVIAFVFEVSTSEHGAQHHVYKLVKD
Protocol: as §3, §4

TEAD4 YAP50-100 = TEAD4 YAP50-100 (Homo sapiens (Human), UniProt Q15561); assay: TEAD-YAP protein-protein interaction HTRF assay; details: TEAD4 YAP50-100 HTRF combined EC50, 30 mins incubation with compound
Chain of TEAD4 YAP50-100 (Q15561 217-434): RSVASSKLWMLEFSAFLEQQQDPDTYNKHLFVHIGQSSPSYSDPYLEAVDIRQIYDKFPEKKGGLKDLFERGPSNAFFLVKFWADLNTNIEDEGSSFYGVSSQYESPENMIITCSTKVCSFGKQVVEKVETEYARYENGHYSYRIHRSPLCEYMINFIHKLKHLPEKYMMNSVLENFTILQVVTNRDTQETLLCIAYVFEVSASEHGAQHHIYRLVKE
Protocol: as §3, §4

Chain of TEAD1 (P28347 whole entry, species assumed): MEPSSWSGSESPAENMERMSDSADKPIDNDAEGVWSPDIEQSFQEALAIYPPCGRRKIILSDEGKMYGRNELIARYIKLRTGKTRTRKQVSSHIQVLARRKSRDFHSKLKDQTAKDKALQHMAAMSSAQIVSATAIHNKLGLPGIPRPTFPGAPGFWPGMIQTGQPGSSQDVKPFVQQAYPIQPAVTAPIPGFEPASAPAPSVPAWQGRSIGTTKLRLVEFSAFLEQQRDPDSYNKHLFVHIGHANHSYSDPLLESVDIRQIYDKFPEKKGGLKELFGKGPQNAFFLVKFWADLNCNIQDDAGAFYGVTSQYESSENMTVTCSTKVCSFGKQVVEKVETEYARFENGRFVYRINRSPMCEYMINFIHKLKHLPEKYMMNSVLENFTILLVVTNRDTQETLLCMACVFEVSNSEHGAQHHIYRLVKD

Row | Compound | IC50 (TEAD1) [nM] | IC50 (TEAD2) [nM] | IC50 (TEAD3) [nM] | IC50 (TEAD4) [nM] | EC50 (TEAD1 YAP50-100) [nM] | EC50 (TEAD2 YAP50-100) [nM] | EC50 (TEAD3 YAP50-100) [nM] | EC50 (TEAD4 YAP50-100) [nM]
1 | C=C(CNc1cc(-c2ccc(C(C)C)cc2)c2c(c1C#N)CCO2)C(=O)O [Compound 3, 2-[[[4-cyano-7-(4-isopropylphenyl)-2,3-dihydrobenzofuran-5-yl]amino]methyl]prop-2-enoic acid] | 20 | 60 | 2880 | 20 | 20 | 30 | 6220 | 30
2 | C=C(CNc1cc(-c2ccc(C(C)C)cc2)c2c(c1C#N)CCO2)B(O)O [Compound 10, 1-[[[4-cyano-7-(4-isopropylphenyl)-2,3-dihydrobenzofuran-5-yl]amino]methyl]vinylboronic acid] | 6300 | 2700 | > 50000 | 1300 | 5700 | 2100 | > 50000 | 2100
3 | C=C(CNc1cc(-c2ccc(C(C)C)cc2)c2c(c1C#N)CCO2)C(=O)NO [Compound 9, 2-[[[4-cyano-7-(4-isopropylphenyl)-2,3-dihydrobenzofuran-5-yl]amino]methyl]prop-2-enehydroxamic acid] | 280 | 110 | 2400 | 120 | 190 | 50 | 2200 | 280
4 | C=C(CN(C)c1cc(-c2ccc(C(C)C)cc2)c2c(c1C#N)CCO2)C(=O)O [Compound 7, 2-[[[4-cyano-7-(4-isopropylphenyl)-2,3-dihydrobenzofuran-5-yl]-methyl-amino]methyl]prop-2-enoic acid] | 540 | 230 | 14000 | 160 | 510 | 180 | > 50000 | 430
5 | C=C(CNc1nc(-c2ccc(C(C)C)cc2)c2c(c1C#N)CCO2)C(=O)O [Compound 22, 2-[[[4-cyano-7-(4-isopropylphenyl)-2,3-dihydrofuro[2,3-c]pyridin-5-yl]amino]methyl]prop-2-enoic acid] | 90 | 100 | 15000 | 50 | 60 | 60 | > 50000 | 100
6 | C=C(CNc1cc(-c2ccc(C(C)C)cc2)c2c(c1C#N)CCO2)C(C)=O [Compound 11, 7-(4-isopropylphenyl)-5-[(2-methylene-3-oxo-butyl)amino]-2,3-dihydrobenzofuran-4-carbonitrile] | 180 | 80 | 130 | 40 | 320 | 130 | 200 | 80
7 | C=C(CNc1cc(-c2ccc(C(C)C)cc2)c2c(c1C#N)CCO2)C(N)=O [Compound 4, 2-[[[4-cyano-7-(4-isopropylphenyl)-2,3-dihydrobenzofuran-5-yl]amino]methyl]prop-2-enamide] | 320 | 100 | 10000 | 80 | 230 | 50 | 13000 | 160
8 | C=C(CNc1nc2c(c(-c3ccc(C(C)C)cc3)n1)OCC2)C(=O)O [Compound 20, 2-[[[4-(4-isopropylphenyl)-6,7-dihydrofuro[3,2-d]pyrimidin-2-yl]amino]methyl]prop-2-enoic acid] | 200 | 70 | 3800 | 20 | 150 | 40 | > 50000 | 40
9 | C=C(CNc1cc(-c2ccc(C(C)C)cc2)c2c(c1C#N)CCO2)C(=O)OC [Compound 8, methyl 2-[[[4-cyano-7-(4-isopropylphenyl)-2,3-dihydrobenzofuran-5-yl]amino]methyl]prop-2-enoate] | 70 | 40 | 240 | 20 | > 50000 | > 50000 | > 50000 | > 50000
10 | C=C(CNc1cc(-c2ccc(C(C)C)cc2)c2c(c1C(N)=O)CCO2)C(=O)O [Compound 34, 2-[[[4-carbamoyl-7-(4-isopropylphenyl)-2,3-dihydrobenzofuran-5-yl]amino]methyl]prop-2-enoic acid] | 1800 | 970 | > 50000 | 330 | 1000 | 580 | > 50000 | 700
11 | C=C(CNc1cc(-c2ccc(C(C)C(F)(F)F)cc2)c2c(c1C#N)CCO2)C(=O)O (single isomer, unassigned) [Enantiomer D from Example 16, 2-(((4-cyano-7-(4-(1,1,1-trifluoropropan-2-yl)phenyl)-2,3-dihydrobenzofuran-5-yl)amino)methyl)acrylic acid] | 80 | 160 | 6100 | 30 | 40 | 70 | > 50000 | 100
12 | C=C(CNc1cc(-c2ccc(C(C)(F)F)cc2)c2c(c1C#N)CCO2)C(=O)O [Compound 19, 2-[[[4-cyano-7-[4-(1,1-difluoroethyl)phenyl]-2,3-dihydrobenzofuran-5-yl]amino]methyl]prop-2-enoic acid] | 50 | 350 | 6400 | 110 | 40 | 190 | 15000 | 230
13 | C=C(CNc1cnc(OC)c(/C=C/[C@H]2CC[C@H](C(F)(F)F)CC2)c1)C(=O)O [Compound 25, 2-[[[6-methoxy-5-[(E)-2-[trans-4-(trifluoromethyl)cyclohexyl]vinyl]-3-pyridyl]amino]methyl]prop-2-enoic acid] | 580 | 270 | 1250 | 140 | > 50000 | > 50000 | > 50000 | > 50000
14 | C=C(CNc1cc(-c2ccc(C(C)C)cc2F)c2c(c1C#N)CCO2)C(=O)O [Compound 30, 2-[[[4-cyano-7-(2-fluoro-4-isopropyl-phenyl)-2,3-dihydrobenzofuran-5-yl]amino]methyl]prop-2-enoic acid] | 50 | 100 | 5900 | 30 | 30 | 40 | 8200 | 40
15 | C=C(CNc1cc(-c2ccc(C(C)C)cc2)c2c(c1C#N)CCO2)C(=O)N(C)C [Compound 6, 2-[[[4-cyano-7-(4-isopropylphenyl)-2,3-dihydrobenzofuran-5-yl]amino]methyl]-N,N-dimethyl-prop-2-enamide] | 1100 | 3500 | > 50000 | 500 | 970 | 2800 | > 50000 | 1000
16 | C=C(CNc1cc(-c2ccc(C(F)(F)F)cc2)c2c(c1C#N)CCO2)C(=O)O [Compound 15, 2-[[[4-cyano-7-[4-(trifluoromethyl)phenyl]-2,3-dihydrobenzofuran-5-yl]amino]methyl]prop-2-enoic acid] | 50 | 530 | 3400 | 110 | 40 | 380 | 11000 | 250

Source: patent publication US11787775B2, “Therapeutic compounds and methods of use” (priority 2020, dated 2023)
